The structures appear in SMILES notation.

The subject of this experiment is isolated cardiac myocytes. Description: Ca2+ transients (indo-1 fluorescence ratio) in isolated cardiac myocytes in culture, with drug and 16 Hz alternating magnetic field. The format is cell-based, rat. As to the method: Cardiac myocytes were extracted in order to study intracellular free calcium ([Ca^2+]i) shifts as a result of exposure to alternating magnetic field. This was estimated from indo-1 fluorescence using the ratio method. […] The hearts were minced and then gently agitated in a solution of proteolytic enzymes, RDB. The RDB was diluted 1:100 in Ca^2+ and Mg^2+ free PBS at 25° C. for a few cycles of 10 minutes each, Dulbecco's modified Eagle's medium (DMEM) supplemented with inactivated 10% horse serum (Biological Industries, Kibbutz Beit Haemek, Israel), and 0.5% chick embryo extract was added to the supernatant suspensions containing dissociated cells. The mixture was centrifuged at 300 g for 5 minutes. The supernatant phase was discarded and the cells were resuspended in the same medium. The suspensions of the cells were diluted to 1.0×10^6 cells/ml and were placed in 35-mm plastic culture dishes on collagen/gelatin coated cover glasses. The culture was incubated in a humidified atmosphere of 5% CO2, 95% air at 37° C. All experiments were performed at day 4 in culture. In a second set of experiments the specificity of the myocyte ion channels (KATP) was tested by inducing exposure alternating magnetic field of 16 Hz, that were delivered for 10 minutes of base line (n=10). Following baseline recording, the channels were blocked by the addition to the dish 5 μM of Glibenclamide and alternating magnetic field was delivered for an additional 20 minutes. In the third setup of the experiment the amount of 5 μM of Glibenclamide was primarily added (n=10), to be followed by exposure to alternating magnetic field of 20 min. In the fourth phase of the experimental setup 3 μM of Nicorandil, a potassium channel opener (KCO) were added (n=10), following 10 minutes, alternating magnetic field was exposure was introduced for 20 minutes. In the fifth phase of the experiment alternating magnetic field was applied for 20 minutes followed by introduction of 3 μM of Nicorandil (n=5). Intracellular free calcium concentration [Ca^2+], was estimated from indo-1 fluorescence using the ratio method previously described before by Grynkiewicz et al (1985). Following incubation, the cells were rinsed twice with glucose enriched PBS and transferred to a chamber on the stage of a Zeiss inverted epifluorescent microscope. Indo-1-AM was excited at 355 nm and the emitted light was then split by a dichroic mirror to two photomultipliers, with input filters at 405 and 495 nm. The fluorescence ratio of 405/495 nm, which is proportional to [Ca2+] was fed into a computer program. The time integral of Ca^2+ Influx was determined as area under the curve via a program, which gives the integral during any specified time window. From this value the baseline offset, measured at the systolic and diastolic phase, were subtracted. Baseline data from calcium transients were normalized to 100 percent and all values were presented as percent change from baseline. Mean and SD were calculated. A P≦0.05 was considered statistically significant.

In the case of `COc1ccc(Cl)cc1C(=O)NCCc1ccc(S(=O)(=O)NC(=O)NC2CCCCC2)cc1` [glibenclamide], where the note is “5 μM Glibenclamide added, before magnetic field, percent change from baseline, n=10, FIG. 8B”, the “change of amplitude of Ca2+ transients (widening) with glibenclamide” value is “+30%±9%”. Besides, the “change of amplitude of Ca2+ transients (narrowing) with glibenclamide following 20 minutes of alternating magnetic field” value (5 μM Glibenclamide then 20 min field of 16 Hz, 80 nT, n=10, FIG. 8C) was −24%±6%. For the same compound, the “effect on calcium ions efflux from myocytes in cultures following exposure to 16 Hz magnetic field” value (low intensities of 16 Hz magnetic field, KATP channel blocker) was “counteracting effect”.
Take `O=C(NCCO[N+](=O)[O-])c1cccnc1` [nicorandil]: under “3 μM Nicorandil added, before magnetic field, percent change from baseline, FIG. 9B”, the “change of amplitude of Ca2+ transients (narrowing) with nicorandil” value is given as −58%±7%. For the same compound, where the note is “3 μM Nicorandil then 20 min field of 16 Hz, 80 nT, n=4, FIG. 9C”, the “change of amplitude of Ca2+ transients (narrowing) with nicorandil following 20 minutes of alternating magnetic field” value was −63%±3%. Also, the “combination of magnetic field exposure and KCO administration” value (nicorandil plus alternating magnetic field, 15.95 Hz, FIGS. 9A-C) was “synergistic effect”.

The values are drawn from patent US20100130945A1, “TREATMENT OF TISSUE VIA APPLICATION OF MAGNETIC FIELD” (priority 2006, published 2010).
